From US20070155757A1, “Use of pyrimidine compounds in the preparation of parasiticides” (priority 2004, published 2007)

Compared with `Nc1c(Oc2cccc(F)c2)ncnc1Oc1cccc(F)c1` [Compound 1.4, 4,6-bis-(3-fluorophenoxy)-pyrimidin-5-ylamine], `Cc1cc(Oc2ncnc(Oc3ccc(F)c(C)c3)c2N)ccc1F` [Compound 1.20, 4,6-bis-(4-fluoro-3-methylphenoxy)-pyrimidin-5-ylamine] is higher in melting point: 110 to 112 °C for the first, 155 to 156 °C for the second.

Compound `NC(=O)Cc1c(Oc2ccc(F)c(C(F)(F)F)c2)ncnc1Oc1ccc(F)c(C(F)(F)F)c1` [Compound 1.29, [4,6-bis-(4-fluoro-3-(trifluoromethyl)phenoxy)]-pyrimidin-5-yl-acetamide] has a melting point of 122 to 124 °C.
